PMC7608467 (Acta Pharmacologica Sinica, 2020)

What was measured:
[1] = target: T1, mouse RXFP4 (mRXFP4) (Mus musculus, UniProt Q7TQP4); assay: inhibition of forskolin-stimulated cAMP accumulation, TR-FRET; assay type: cell-based; conditions: agonist; 500 nM forskolin, 500 uM IBMX, 40 min, RT
T1 sequence (Q7TQP4 1-414): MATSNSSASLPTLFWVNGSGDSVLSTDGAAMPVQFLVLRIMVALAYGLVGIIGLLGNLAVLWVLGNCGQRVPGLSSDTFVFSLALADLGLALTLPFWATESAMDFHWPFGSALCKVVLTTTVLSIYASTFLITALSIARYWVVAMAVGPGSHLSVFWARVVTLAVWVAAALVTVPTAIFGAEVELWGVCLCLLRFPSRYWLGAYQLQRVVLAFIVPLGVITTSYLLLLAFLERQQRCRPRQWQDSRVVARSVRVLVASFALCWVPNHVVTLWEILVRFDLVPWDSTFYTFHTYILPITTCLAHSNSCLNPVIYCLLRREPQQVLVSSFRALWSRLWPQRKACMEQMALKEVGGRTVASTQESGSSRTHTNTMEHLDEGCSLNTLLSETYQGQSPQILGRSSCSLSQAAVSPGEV

[2] = target: T2, human RXFP4 (hRXFP4) (Homo sapiens, UniProt Q8TDU9); assay: as above; assay type: cell-based; conditions: agonist; 500 nM forskolin, 500 uM IBMX, 40 min, RT
T2 sequence (Q8TDU9 whole entry): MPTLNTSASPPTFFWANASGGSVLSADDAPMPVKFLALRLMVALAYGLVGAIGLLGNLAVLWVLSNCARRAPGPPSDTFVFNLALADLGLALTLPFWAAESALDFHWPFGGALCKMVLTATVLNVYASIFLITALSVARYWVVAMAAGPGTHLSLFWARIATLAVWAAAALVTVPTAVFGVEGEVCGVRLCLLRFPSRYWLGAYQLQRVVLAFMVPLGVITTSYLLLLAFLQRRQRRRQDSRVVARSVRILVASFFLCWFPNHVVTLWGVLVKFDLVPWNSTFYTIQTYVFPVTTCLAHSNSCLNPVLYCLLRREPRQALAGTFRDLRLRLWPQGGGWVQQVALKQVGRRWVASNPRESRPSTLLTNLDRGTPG

[3] = target: T2, human RXFP4 (hRXFP4); assay: Eu-mINSL5 competition binding, time-resolved fluorescence, CHO-RXFP4 cells; assay type: cell-based; conditions: n = 3; one-site fit; competitive with Eu-labelled INSL5
[4] = target: human relaxin/insulin-like family peptide receptor 4 (RXFP4) on CHO-K1 cells (human) (UniProt Q8TDU9)
Sequence of human relaxin/insulin-like family peptide receptor 4 (RXFP4) on CHO-K1 cells (human) (Q8TDU9 whole entry): as above

Sequence of Human INSL5 (insulin-like peptide 5) (ligand) (Q9Y5Q6 23-135): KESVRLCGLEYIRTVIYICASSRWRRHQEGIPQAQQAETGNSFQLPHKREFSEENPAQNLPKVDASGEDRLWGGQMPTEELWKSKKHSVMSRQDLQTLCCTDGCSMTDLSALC

pEC50 [1] | pEC50 [2] | pKi [3] | pEC50, inhibition of forskolin-stimulated cAMP production in hRXFP4-CHO cells [4] | Compound
4.60 ± 0.07 -log M | 4.76 ± 0.04 -log M | 4.48 ± 0.09 -log M |  | O=C1CCCC2=C1[C@H](c1ccc(O)cc1)n1nc(-c3ccccc3Cl)nc1N2 [JK1]
 |  |  | 7.52 | R3/I5 (ligand)
 |  |  | 8.12 | Human INSL5 (insulin-like peptide 5) (ligand)
